Measured values reported in ChEMBL document CHEMBL5209563, “FFN206 based assay for SLC18A1 using HEK-293 SLC18A1 OE cells” (2022).
The source made the active and inactive calls. No cut-off for these calls is given here.

Target: T1, Chromaffin granule amine transporter (Homo sapiens, UniProt P54219)
T1 sequence (P54219 whole entry): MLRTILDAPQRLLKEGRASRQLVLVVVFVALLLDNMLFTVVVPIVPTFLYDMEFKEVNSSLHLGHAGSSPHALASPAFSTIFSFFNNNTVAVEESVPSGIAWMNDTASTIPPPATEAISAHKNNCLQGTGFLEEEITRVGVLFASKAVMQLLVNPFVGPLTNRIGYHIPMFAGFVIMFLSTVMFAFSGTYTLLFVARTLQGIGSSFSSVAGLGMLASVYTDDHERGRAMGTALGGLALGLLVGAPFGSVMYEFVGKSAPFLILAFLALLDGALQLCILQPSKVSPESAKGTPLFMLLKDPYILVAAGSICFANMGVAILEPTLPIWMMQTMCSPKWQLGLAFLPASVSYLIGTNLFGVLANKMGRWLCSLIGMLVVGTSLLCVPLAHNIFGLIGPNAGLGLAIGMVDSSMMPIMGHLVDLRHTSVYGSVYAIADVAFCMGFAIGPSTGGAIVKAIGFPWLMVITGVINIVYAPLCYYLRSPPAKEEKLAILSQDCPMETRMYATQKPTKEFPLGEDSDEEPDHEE
Assay: Substrate uptake and inhibition of the chromaffin granule amine transporter (VAT1, VMAT1, SLC18A1) as assessed by uptake of a fluorescent substrate (FFN206) in HEK-293 JumpIN-SLC18A1 cells (PubChem AID: 1794818)
Assay type: functional, cell-based, HEK293

SMILES | EC50 | IC50
CNc1ccc2c(CCN)cc(=O)oc2c1 | 2000 nM | 
COC(=O)[C@H]1[C@H]2C[C@@H]3c4[nH]c5cc(OC)ccc5c4CCN3C[C@H]2C[C@@H](OC(=O)c2cc(OC)c(OC)c(OC)c2)[C@@H]1OC [RESERPINE] |  | 50 nM
COc1cc2c(cc1OC)C1CC(=O)C(CC(C)C)CN1CC2 (stereo not drawn) [TETRABENAZINE] |  | > 10000 nM (inactive)
